The values that follow come from patent US7994211B2, “Bicyclo[2.2.1]hept-7-ylamine derivatives and their uses” (Argenta Discovery Limited, priority 2005, dated 2011).

One experiment deals with T1, human β2 adrenergic receptor (Homo sapiens, UniProt P07550).
T1 construct: purchased
T1 sequence (P07550 whole entry): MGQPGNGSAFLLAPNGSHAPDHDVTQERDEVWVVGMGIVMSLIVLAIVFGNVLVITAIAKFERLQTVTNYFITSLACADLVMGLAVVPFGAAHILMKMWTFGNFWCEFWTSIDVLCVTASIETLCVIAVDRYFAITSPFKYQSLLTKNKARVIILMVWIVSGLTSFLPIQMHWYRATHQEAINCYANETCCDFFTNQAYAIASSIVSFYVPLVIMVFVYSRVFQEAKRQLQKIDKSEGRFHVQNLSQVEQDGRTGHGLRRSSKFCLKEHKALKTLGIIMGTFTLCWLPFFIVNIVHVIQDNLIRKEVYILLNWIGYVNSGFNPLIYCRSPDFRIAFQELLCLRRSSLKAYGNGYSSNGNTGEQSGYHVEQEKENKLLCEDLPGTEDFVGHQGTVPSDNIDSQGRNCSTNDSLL
The experiment can be described thus: β-Adrenergic receptor radioligand binding assay ([125I]-Iodocyanopindolol).
Conditions: not given
As for the experimental part:
Radioligand binding studies utilising [^125I]-Iodocyanopindolol and commercially available cell membranes expressing the human β2 adrenergic receptor were used to assess the affinity of antagonists for β2-adrenergic receptor. Membranes and SPA-beads were incubated with [^125I]-Iodocyanopindolol and β2 antagonist at various concentrations for 3 hours at ambient temperature in TRIS buffer. The assay was performed in 96-well plates which were read using the Wallac Microbeta counter.
The Ki is a dissociation constant, usually derived from enzyme kinetics or from competition with a known ligand. In turn, `CN(CCCCCCCCCNC[C@H](O)c1ccc(O)c2[nH]c(=O)ccc12)[C@H]1[C@H]2CC[C@@H]1[C@H](OC(=O)C(O)(c1cccs1)c1cccs1)C2` [Example 41, Hydroxy-di-thiophen-2-yl-acetic acid (1S,2R,4S,7S)-7-({9-[(R)-2-hydroxy-2-(8-hydroxy-2-oxo-1,2-dihydro-quinolin-5-yl)-ethylamino]-nonyl}-methyl-amino)-bicyclo[2.2.1]hept-2-yl ester] returned a Ki of less than 100 nM.

In another experiment the target is T2, human muscarinic receptors (M3) (Homo sapiens, UniProt P20309).
T2 construct: purchased
T2 sequence (P20309 whole entry): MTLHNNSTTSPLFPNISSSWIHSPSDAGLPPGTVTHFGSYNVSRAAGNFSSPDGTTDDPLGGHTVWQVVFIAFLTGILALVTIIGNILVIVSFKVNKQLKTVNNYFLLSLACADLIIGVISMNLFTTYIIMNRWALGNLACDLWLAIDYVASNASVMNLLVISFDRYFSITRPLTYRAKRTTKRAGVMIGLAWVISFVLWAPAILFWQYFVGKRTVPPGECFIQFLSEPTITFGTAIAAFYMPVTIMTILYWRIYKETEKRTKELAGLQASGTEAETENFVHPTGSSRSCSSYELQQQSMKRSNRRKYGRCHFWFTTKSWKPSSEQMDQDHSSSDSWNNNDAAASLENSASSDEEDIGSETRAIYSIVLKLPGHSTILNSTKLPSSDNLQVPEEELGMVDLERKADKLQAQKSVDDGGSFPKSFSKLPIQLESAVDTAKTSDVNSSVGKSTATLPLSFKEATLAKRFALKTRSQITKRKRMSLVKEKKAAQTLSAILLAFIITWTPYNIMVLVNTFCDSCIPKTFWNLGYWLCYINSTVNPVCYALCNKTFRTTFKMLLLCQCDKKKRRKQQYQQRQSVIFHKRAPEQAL
The experiment can be described thus: Muscarinic receptor radioligand binding assay ([3H]-NMS). The settings on record: membranes expressing human M3 receptor, read-out: Binding potency (M3 binding potencies, Ki values). How it is done:
Radioligand binding studies utilising [^3H]-N-methyl scopolamine ([^3H]-NMS) and commercially available cell membranes expressing the human muscarinic receptors (M2 and M3) were used to assess the affinity of muscarinic antagonists for M2 and M3 receptors. Membranes in TRIS buffer were incubated in 96-well plates with [^3H]-NMS and M3 antagonist at various concentrations for 3 hours. Membranes and bound radioligand were then harvested by filtration and allowed to dry overnight. Scintillation fluid was then added and the bound radioligand counted using a Canberra Packard Topcount scintillation counter.
As for `CN(C)C1C2CCC1C(OC(=O)Nc1ccccc1-c1ccccc1)C2` (single isomer, unassigned) [Example 2, anti-Biphenyl-2-yl-carbamic acid 7-dimethylamino-bicyclo[2.2.1]hept-2-yl ester], the Ki was less than 1 nM.
On to `CN(CCCOc1ccccc1)C1C2CCC1C(OC(=O)Nc1ccccc1-c1ccccc1)C2` (single isomer, unassigned) [Example 10, anti-Biphenyl-2-yl-carbamic acid-7-[methyl-(3-phenoxy-propyl)-amino]-bicyclo[2.2.1]hept-2-yl ester], for which the Ki was more than 10 nM.
On to `CN(C)C1C2CCC1C(OC(=O)Nc1ccccc1-c1ccccc1)C2` (single isomer, unassigned) [Example 3, anti-Biphenyl-2-yl-carbamic acid 7-dimethylamino-bicyclo[2.2.1]hept-2-yl ester], for which the Ki was in the range of 1 to 10 nM.
As to `CN(C)C1C2CCC1C(OC(=O)Nc1ccccc1-c1ccccc1)C2` (single isomer, unassigned) [Example 6, syn-Biphenyl-2-yl-carbamic acid 7-dimethylamino-bicyclo[2.2.1]hept-2-yl ester], the Ki was in the range of 1 to 10 nM.
As to `CN(CCCOc1ccccc1)C1C2CCC1C(OC(=O)C1c3ccccc3Oc3ccccc31)C2` [Example 34, anti-(1S,2R) 9H-Xanthene-9-carboxylic acid 7-[methyl-(3-phenoxy-propyl)-amino]-bicyclo[2.2.1]hept-2-yl ester], the Ki lay within 1 to 10 nM.
`CN(C)C1C2CCC1C(OC(=O)Nc1ccccc1-c1ccccc1)C2` (single isomer, unassigned) [Example 7, syn-Biphenyl-2-yl-carbamic acid 7-dimethylamino-bicyclo[2.2.1]hept-2-yl ester]: the Ki is 1 to 10 nM.
Consider `CN(CCCOc1ccccc1)C1C2CCC1C(OC(=O)Nc1ccccc1-c1ccccc1)C2` (single isomer, unassigned) [Example 9, anti-Biphenyl-2-yl-carbamic acid-7-[methyl-(3-phenoxy-propyl)-amino]bicyclo[2.2.1]hept-2-yl ester], for which the Ki was more than 10 nM.
Same read-out and setting: as for `C[N+](C)(CCCOc1ccccc1)C1C2CCC1C(OCC(O)(c1ccccc1)c1ccccc1)C2` [Example 40, anti-(1S,2R) 2-(2-Hydroxy-2,2-diphenyl-ethoxy)-bicyclo[2.2.1]hept-7-yl]-dimethyl-(3-phenoxy-propyl)-ammonium bromide], the figure is more than 10 nM; as for `CN(C)C1C2CCC1C(OC(=O)Nc1ccccc1-c1ccccc1)C2` (racemic) [Example 1, (±)-anti-Biphenyl-2-yl-carbamic acid 7-dimethylamino-bicyclo[2.2.1]hept-2-yl ester], less than 1 nM; as for `C[N+](C)(C)C1C2CCC1C(OC(=O)Nc1ccccc1-c1ccccc1)C2` (racemic) [Example 8, (±)-syn-[2-(Biphenyl-2-ylcarbamoyloxy)-bicyclo[2.2.1]hept-7-yl]-trimethyl-ammonium iodide], 1 to 10 nM.
Consider `C[N+](C)(CCCOc1ccccc1)C1C2CCC1C(OC(=O)C1c3ccccc3Oc3ccccc31)C2` [Example 36, anti-(1S,2R) Dimethyl-(3-phenoxy-propyl)-[2-(9H-xanthene-9-carbonyloxy)-bicyclo[2.2.1]hept-7-yl]-ammonium bromide], for which the Ki is less than 1 nM.
The same measure, in the same setting: then `C[N+](C)(CCCOc1ccccc1)C1C2CCC1C(OC(=O)Nc1ccccc1-c1ccccc1)C2` (single isomer, unassigned) [Example 12], with less than 1 nM.
Still for that read-out and setting: then `C[N+](C)(CCCOc1ccccc1)C1C2CCC1C(OC(=O)Nc1ccccc1-c1ccccc1)C2` (single isomer, unassigned) [Example 11], with less than 1 nM.
